Earlier results, collected in patent US20100227874A1, “REDUCTION OF OXIDATIVE STRESS DAMAGE DURING OR AFTER EXERCISE” (NESTEC S.A., priority 2007, published 2010).

System: rat adipocytes
Settings: insulin-potentiating epididymal fat-cell assay with rat adipocytes

Structure (SMILES) | Insulin activity in vitro
O=C(O[C@@H]1Cc2c(O)cc(O)cc2O[C@@H]1c1ccc(O)c(O)c1)c1cc(O)c(O)c(O)c1 [epicatechin gallate] | enhance insulin activity
O=C(O[C@@H]1Cc2c(O)cc(O)cc2O[C@@H]1c1cc(O)c(O)c(O)c1)c1cc(O)c(O)c(O)c1 [epigallocatechin gallate] | enhance insulin activity
